Read-outs that look alike come from different tables or passages of the source.
Columns and labels:
[1] = system: C57BL/6J, B6.B10ScN-Tlr4lps-del/JthJ and C3H/HeJ mice; type: in vivo
Experimental: The role of TLR-4 in response to an acute increase in free heme was investigated. Wild type C57BL/6J mice and TLR-4 mutant mice B6.B10ScN-Tlr4^lps-del and C3H/HeJ (Poltorak et al. Defective LPS signaling in C3H/HeJ and C57BL/10ScCr mice: mutations in Tlr4 gene. Science. 1998; 282(5396):2085-2088.; Qureshi et al. Endotoxin-tolerant mice have mutations in Toll-like receptor 4 (Tlr4). The J Expt. Med. 1999; 189(4):615-625) were injected intravenously with 210 μmoles/kg hemin, a normally lethal dose. This injection increased free heme concentrations by a magnitude of 50-fold in both wild type and TLR-4 mutant mice (FIG. 6a).
TPH per se, therefore, the involvement of a receptor mediated mechanism was suspected. Several heme receptors have been characterized, including TLR433, which is uniquely expressed by multiple cells in the circulation and therefore accessible to PFPH. Studies were performed in wild-type C57BL/6J mice, and mutant strains, B6.B10ScN-Tlr4lps-del/JthJ and C3H/HeJ, harboring a deletion and a point mutation respectively, in the murine TLR4 gene. Significant elevation of PFPH in these mice required a large dose of heme (210 μmoles/kg) (FIG. 12a), and as expected this amount of heme interfered, transiently with SpO2 measurements characterized by an immediate and dramatic decline. […] This interpretation was supported by a return of SpO2 values to normal in C3H/HeJ but not in the wild-type C57BL/6J mice, indeed, SpO2 deteriorated over time in the latter reminiscent of the decline in SS mice (FIG. 12b). […] These unique pulmonary responses were consistent with survival (FIG. 12d) and lung histology (FIG. 13).

[2] = system: non-sickle cell disease mice; settings: hemin 70 μmoles/kg, Vinchi et al.; cited from earlier work
SS mice [3] = system: SS mice
NF-κB = NF-κB activation in pulmonary microvascular endothelial cells; type: cell-based; settings: PMVECs, hemin 5 or 10 μM
Description: Additionally, the role of NF-κB in the inflammatory response to free heme that occurs in ACS was investigated. Endothelial TLR4, and not neutrophil TLR4, mediates the early stage of the acute sequestration of neutrophils into the lungs in response to systemic LPS (Andonegui et al. Endothelium-derived Toll-like receptor-4 is the key molecule in LPS-induced neutrophil sequestration into lungs. J Clin Invest. 2003; 111(7):1011-1020; Andonegui et al. Mice that exclusively express TLR4 on endothelial cells can efficiently clear a lethal systemic Gram-negative bacterial infection. J Clin Invest. 2009; 119(7): 1921-1930). Thus, pulmonary microvascular endothelial cells (PMVECs) may play a role in the inflammatory response to free heme. […] These include nuclear translocation of p65 NF-κB in PMVECs as determined by immunofluorescence staining and western blot of nuclear extract (FIGS. 7b and 7c, respectively), luciferase reporter gene activity driven by a promoter harboring NF-κB cis elements in PMVECs (FIG. 7d), and TNF-α production (FIG. 7e).

SS mice [4] = assay: TAK-242 pre-treatment before heme in SS mice; type: in vivo, mouse
Experimental: (a, b) The concentration of total and protein-free plasma heme in SS mice following, injections of TAK-242 or intralipid in the absence of exogenous heme. (c, d) Percentage oxygen saturation and breath rate monitored in real-time in SS mice at different stages of the experiment as indicated. Data shown are for a total of nine SS mice (intralipid; n=4, TAK-242; n=5). (e) Survival of SS mice pre-treated with TAK-242 (3 or 5 mg/kg) for 1 h prior to intravenous administration of heme (n=7-13). Control mice were treated with intralipid (n=17). (f) Representative lung H&E staining of SS mice treated with intralipid or TAK-242 one hour prior to administration of heme (35 μmoles/kg). Cumulative lung injury score (n=3). *p<0.05, **p<0.01 and ***p<0.001.
TAK-242 (resatorvid) is a small molecule that binds to Cys747 of the intracellular domain of TLR4 and inhibits downstream signaling. It inhibits the production of lipopolysaccharide (LPS)-induced inflammatory mediators, and it improves survival in LPS-induced sepsis. […] One hour prior to heme administration, a cohort of SS mice were intravenously administered 5 mg/kg of TAK-242, or intralipid. […] Heme had no impact on SpO2 in the majority of TAK-242 treated SS mice (5/6), however it caused an initially subtle yet sustained decrease that deteriorated over time in the intralipid treated mice (FIG. 14c). […] TAK-242 protected 83% of the SS mice from heme induced lethality, compared to 20% in the group given intralipid. These survival data were similar to those obtained in subsequent experiments focused on heme induced lethality (TAK-242; 5/7 (71%) protection, intralipid; 3/12 […] protection). The combined data is shown in FIG. 14e, and is supported by histological analysis (FIG. 14f).

SS mice [5] = assay: Acute prophylaxis with recombinant human hemopexin before heme in SS mice; type: in vivo, mouse; settings: 1 mg intravenously immediately before heme 35 μmoles/kg
Experimental: Mice were injected with rhHx (n=6), vehicle (n=5) or human IgG (n=3) immediately before administration of heme (35 μmoles/kg). *p<0.05, **p<0.01 and ***p<0.001.
The hemopexin-treated mice were all protected while the control mice succumbed to heme (FIG. 11). Thus, acute prophylaxis using hemopexin may be an attractive therapeutic strategy to block the deleterious effects of PFPH during severe episodes of acute hemolysis in SCD.

Iron mesoporphyrin [Fe(III)MPP-IX]
survival ([1]; mouse, in vivo): no impact on survival

Fe(III)PPIX [hemin]
increase of lung permeability [2]: 2 fold | mortality ([1]; hemin 210 μmoles/kg, both types of TLR-4 mutant mice): 0% | mortality rate ([1]; hemin 210 μmoles/kg, wild type C57BL/6J mice, after 90 minutes): 100% | serum ALT (SS mice [3]; SS mice treated with heme, at the median time of death): normal | plasma hemopexin level after heme injection (SS mice [3]; SS mice, heme 35 μmoles/kg, 5-30 min): virtually undetectable levels | survival (SS mice [3]; heme 35 μmoles/kg, SS mice with the highest baseline hemopexin level): 50% | survival (SS mice [3]; heme 35 μmoles/kg, SS mice with the lowest baseline hemopexin (<0.1 mg/ml)): none | survival (SS mice [3]; heme 70 μmoles/kg, AS and AA mice): no impact on survival | total plasma heme (TPH) and protein-free plasma heme (PFPH) (SS mice [3]; heme 17.5-70 μmoles/kg intravenously, SS mice): raised TPH and PFPH in a dose-dependent manner | lethality (SS mice [3]; heme 17.5-70 μmoles/kg, SS mice): caused lethality in SS mice in a dose-dependent manner | oxygen saturation (SpO2) (SS mice [3]; hemin 70 μmoles/kg intravenous, SS mice): sharp drop | increase of plasma concentration of heme (SS mice [3]; hemin 70 μmoles/kg intravenously, SS and control mice): 20 fold | change in SpO2 or breath rate (SS mice [3]; hemin 70 μmoles/kg, AS mice): no significant change | change in hematocrit (SS mice [3]; hemin 70 μmoles/kg, SS or control mice): did not significantly change | lethality (SS mice [3]; hemin 70 μmoles/kg, Townes and Berkeley SCD mice): caused sudden death | mortality (SS mice [3]; hemin 70 μmoles/kg, adult SS mice aged 13-27 weeks): 100% | survival (SS mice [3]; hemin 70 μmoles/kg, young SS mice 5-7 weeks old): 80% | NF-κB activation (p65 nuclear translocation, luciferase reporter, TNF-α production) (NF-κB): dose-dependently activates

C=CC1=C(C)c2cc3[nH]c(cc4[nH]c(cc5nc(cc1n2)C(C)=C5C=C)c(C)c4CCC(=O)[O-])c(CCC(=O)[O-])c3C.[Na+].[Na+] [Na-PPIX, sodium protoporphyrin IX]
survival ([1]; injected at the LD100 of heme, C57BL/6J mice): no impact on survival

CCOC(=O)C1=CCCC[C@H]1S(=O)(=O)Nc1ccc(F)cc1Cl [TAK-242, resatorvid]
development of heme induced ALI (SS mice [4]; SCD mice, pre-treatment 1 h before heme): prevents | scavenging of heme (total and protein-free plasma heme) (SS mice [4]; SS mice, absence of exogenous heme): did not alter | protection from heme induced lethality (SS mice [4]; TAK-242 5 mg/kg 1 h before heme, SS mice, first cohort): 83% | SS mice in which heme had no impact on SpO2 (SS mice [4]; TAK-242 5 mg/kg intravenously 1 h before heme): 5/6 | breath rate after heme (SS mice [4]; TAK-242 5 mg/kg intravenously 1 h before heme, SS mice): remained essentially the same | protection from heme induced lethality (SS mice [4]; subsequent experiments focused on lethality, SS mice): 71%

B1: recombinant human hemopexin: recombinant human hemopexin, a protein that binds free heme for transport to the liver (protein, UniProt P02790 24-462, looked up)
Hemopexin: TPLPPTSAHGNVAEGETKPDPDVTERCSDGWSFDATTLDDNGTMLFFKGEFVWKSHKWDRELISERWKNFPSPVDAAFRQGHNSVFLIKGDKVWVYPPEKKEKGYPKLLQDEFPGIPSPLDAAVECHRGECQAEGVLFFQGDREWFWDLATGTMKERSWPAVGNCSSALRWLGRYYCFQGNQFLRFDPVRGEVPPRYPRDVRDYFMPCPGRGHGHRNGTGHGNSTHHGPEYMRCSPHLVLSALTSDNHGATYAFSGTHYWRLDTSRDGWHSWPIAHQWPQGPSAVDAAFSWEEKLYLVQGTQVYVFLTKGGYTLVSGYPKRLEKEVGTPHGIILDSVDAAFICPGSSRLHIMAGRRLWWLDLKSGAQATWTELPWPHEKVDGALCMEKSLGPNSCSANGPGLYLIHGPNLYCYSDVEKLNAAKALPQPQNVTSLLGCTH
protection from heme induced lethality (SS mice [5]): all protected | protection from heme induced lethality (SS mice [5]; listed as rhHx): protects

— patent publication US20130123185A1, “METHODS OF TREATING AND DIAGNOSING ACUTE CHEST SYNDROME” (EMORY UNIVERSITY, priority 2010, published 2013)
